# Data reported in US20150140002A1, “USE OF A PCSK9 INHIBITOR TO TREAT […]” (Sanofi, priority 2013, published 2015).
# Values joined by “and” are separate entries in the source; they are usually repeats but may differ in a detail not shown here. Equal values may be shown once.
# Legend:
# [1] = tested on: patients with hypercholesterolemia at moderate cardiovascular (CV) risk; test: Example 2: safety (TEAEs, laboratory parameters, vital signs)
# [2] = tested on: patients with hypercholesterolemia at moderate cardiovascular (CV) risk; test: Example 2: Phase 3 monotherapy trial mAb316P versus ezetimibe, lipid parameters; assay type: in vivo, human; conditions: for Lp(a) adjusted mean (SE) % change from baseline to week 24 / TGs adjusted mean (SE) % change from baseline to week 24: combined estimate; for LDL-C LS mean (SE) change from baseline (%): baseline to Week 24; for time-course of LDL-C lowering: week 4 to week 24, on-treatment; for between-group LS mean (SE) difference in LDL-C: week 12
# Source text: Randomization was stratified according to DM status. […] Patients were followed for 8 weeks after the last visit of the Double Blind Treatment Period (DBTP).
# Double-blind treatment period (DBTP)—A randomized, double-blind double dummy study treatment period of 24 weeks. The first injection during the double-blind period was done at the site on the day of randomization (Week 0 [D1]-V3) and as soon as possible after the call to IVRS/IWRS for randomization into the study. The subsequent injections were done by the patient (self-injection) or another designated person (such as spouse, relative, etc.) at a patient-preferred location (home, etc.).
# The primary efficacy endpoint was the percent change in calculated LDL-C from baseline to week 24, which is defined as: 100×(calculated LDL-C value at Week 24−calculated LDL-C value at baseline)/calculated LDL-C value at baseline.
# Total-C, HDL-C, TG, Apo B, Apo A-1, and Lp (a) were directly measured. LDL-C was calculated using the Friedewald formula at all visits (except Week −1 and Follow Up visit). If TG values exceeded 400 mg/dL (4.52 mmol/L) then the central lab reflexively measured (via the beta quantification method) the LDL-C rather than calculating it. Non-HDL-C was calculated by subtracting HDL-C from the total-C. Ratio Apo B/Apo A-1 was calculated.
# The primary endpoint was assessed in the intent-to-treat (ITT) population, which included all randomized patients who had at least 1 calculated LDL-C value at baseline and at one of the planned time points from weeks 4 to 24.
# Missing data were accounted for by means of a mixed effect model with repeated measures (MMRM) approach (Siddiqui et al., MMRM vs. LOCF: a comprehensive comparison based on simulation study and 25 NDA datasets”, J Biopharm Stat, vol. 19, pp. 227-246 (2009); National Research Council, “The Prevention and Treatment of Missing Data in Clinical Trials” Panel on Handling Missing Data in Clinical Trials. Committee on National Statistics, Division of Behavioral and Social Sciences and Education. 2010. Washington, D.C.: The National Academies Press; Andersen et al., “On the practical application of mixed effects models for repeated measures to clinical trial data”, Pharm Stat., vol. 12, pp. 7-16 (2013)). For the ITT analysis, all available measurements at planned time points from weeks 4 to 24 (meaning week 4, 8, 12, 16, and 24), whatever their status on or off-treatment, were used in the MMRM. One MMRM model was used for LDL-C to provide least-squares means estimates and comparison between treatment arms at weeks 24 and 12. Further details on the model are given below. For the on-treatment analysis, all available on-treatment measurements (i.e. up to 21 days after last injection/3 days after last capsule, whichever comes first) at planned time points from weeks 4 to 24 were used in the MMRM model. In the same way as for the ITT analysis, one model was used to provide estimates and comparison at week 24 and week 12 for the on-treatment analysis. Continuous key secondary endpoints other than Lp(a) and triglycerides were analyzed in a similar fashion as the primary endpoint and description of the statistical methodology for secondary endpoints and subgroup analysis is provided below.
# Outputs from the model were the baseline-adjusted least-squares (LS) mean estimates at week 24 for both treatment groups with their corresponding standard error (SE). Appropriate contrast statement was used to test the difference between these estimates at the 2-sided 5% alpha level.
# To analyze the key secondary endpoints, a hierarchical procedure was used to control type I error and handle multiplicity. Secondary efficacy endpoints were tested sequentially using the order given above, in the intent-to-treat population.
# [3] = Week 12, individual patient 6 who reported high blood glucose
# [4] = Week 24, individual patients (arbitrary numbers 1-5) who reported high blood glucose
substance,measurement,setting,value
"mAb316P: human anti-PCSK9 antibody; heavy chain SEQ ID NO:5, light chain SEQ ID NO:9; HCVR SEQ ID NO:1, LCVR SEQ ID NO:6",Albumin ≦25 g/L,[1]; Laboratory parameters,0/51
same,Aspartate aminotransferase >3× ULN,[1]; Laboratory parameters,0/52
same,Creatine kinase >3× ULN,[1]; Laboratory parameters,0/51
same,Creatine kinase >10× ULN,[1]; Laboratory parameters,0/51
same,Glucose ≦70 mg/dL (3.9 mmol/L) and <LLN,[1]; Laboratory parameters,0/52
same,Patients with any TEAE,[1]; Safety Population,36 (69.2) n (%)
same,Patients with any TEAE leading to death,[1]; Safety Population,0 n (%)
same,Patients with any TEAE leading to treatment discontinuation,[1]; Safety Population,5 (9.6) n (%)
same,Patients with any treatment emergent SAE,[1]; Safety Population,1 (1.9) n (%)
same,Arthralgia,[1]; TEAE,3 (5.8) n (%)
same,Diarrhea,[1]; TEAE,6 (11.5) n (%)
same,Dizziness,[1]; TEAE,1 (1.9) n (%)
same,Headaches,[1]; TEAE,3 (5.8) n (%)
same,Influenza,[1]; TEAE,6 (11.5) n (%)
same,Nasopharyngitis,[1]; TEAE,12 (23.1) n (%)
same,Nausea,[1]; TEAE,3 (5.8) n (%)
same,Upper respiratory tract infection,[1]; TEAE,2 (3.8) n (%)
same,Urinary tract infection,[1]; TEAE,0 n (%)
same,back pain,[1]; TEAE,1 (1.9) n (%)
same,General disorders and administration site conditions,[1]; TEAEs of interest,5 (9.6) n (%)
same,Injection site reaction,[1]; TEAEs of interest,1 (1.9) n (%)
same,Muscle disorders,[1]; TEAEs of interest,2 (3.8) n (%)
same,Musculoskeletal and connective tissue disorders,[1]; TEAEs of interest,8 (15.4) n (%)
same,Musculoskeletal and connective tissue disorders NEC,[1]; TEAEs of interest,2 (3.8) n (%)
same,Musculoskeletal pain,[1]; TEAEs of interest,1 (1.9) n (%)
same,Myalgia,[1]; TEAEs of interest,2 (3.8) n (%)
same,muscle spasms,[1]; TEAEs of interest,0 n (%)
same,Fasting blood glucose,[1]; [3],135 mg/dL
same,HbA1c,[1]; [3],6.3%
same,Fasting blood glucose,[1]; [4],121 mg/dL and 112 mg/dL (2×) and 70 mg/dL and 183 mg/dL
same,HbA1c,[1]; [4],6.5% and 5.9% (2×) and 6.2% and 7.7%
same,Muscle-related AEs,[1]; discussion,4%
same,injection related AEs,[1]; disposable autoinjector,< 2%
same,Muscle-related TEAEs,[1]; in vivo,2 (4%) patients (%)
same,overall percentage of patients who experienced at least one TEAE,[1]; in vivo,69%
same,"patients with abnormalities in vital signs (blood pressure, heart rate)",[1]; in vivo,no patients
same,patients with blood glucose >126 mg/dL (7 mmol/L),[1]; in vivo,6 patients
same,patients who experienced at least 1 LDL-C value<25 mg/dL,[1]; mAb316P 75 mg Q2W,Three
same,tolerability and safety,[1]; overall conclusion,tolerability and safety comparable with ezetimibe
same,Apo A-1 LS mean (SE) % change from baseline to week 24,[2]; ITT,4.7 (1.6) %
same,Apo B LS mean (SE) % change from baseline to week 24,[2]; ITT,−36.7 (2.3) %
same,HDL-C LS mean (SE) % change from baseline to week 24,[2]; ITT,6.0 (1.9) %
same,Non-HDL-C LS mean (SE) % change from baseline to week 24,[2]; ITT,−40.6 (2.8) %
same,Total cholesterol LS mean (SE) % change from baseline to week 24,[2]; ITT,−29.6 (2.1) %
same,Lp(a) adjusted mean (SE) % change from baseline to week 24,[2]; ITT,−16.7 (3.7) %
same,TGs adjusted mean (SE) % change from baseline to week 24,[2]; ITT,−11.9 (4.2) %
same,LDL-C LS mean (SE) Week 24 change from baseline (%),"[2]; ITT, excluding post up-titration data from patients up-titrated having LDL-C <100 mg/dL",−44.3%
same,LS mean (SE) percent reductions in LDL-C from baseline to week 24,"[2]; ITT, given as reduction",47 (3) %
same,LDL-C reduction at week 12,"[2]; ITT, mAb316P 75 mg Q2W before up-titration, ezetimibe 10 mg daily",48 (3) % and 48%
same,Apo A-1 LS mean (SE) % change from baseline to week 24,[2]; On-treatment,5.3 (1.6) %
same,Apo B LS mean (SE) % change from baseline to week 24,[2]; On-treatment,−40.8 (1.9) %
same,HDL-C LS mean (SE) % change from baseline to week 24,[2]; On-treatment,8.0 (1.9) %
same,Non-HDL-C LS mean (SE) % change from baseline to week 24,[2]; On-treatment,−47.1 (1.9) %
same,Total cholesterol LS mean (SE) % change from baseline to week 24,[2]; On-treatment,−34.2 (1.6) %
same,Lp(a) adjusted mean (SE) % change from baseline to week 24,[2]; On-treatment,−17.7 (4.1) %
same,TGs adjusted mean (SE) % change from baseline to week 24,[2]; On-treatment,−14.7 (4.4) %
same,"LDL-C (on treatment), mean (SD)","[2]; Week 4, non-uptitrated at Week 12 (n = 32)",59.8 (13.6) mg/dL
same,"LDL-C (on treatment), mean (SD)","[2]; Week 4, uptitrated at Week 12 (n = 14)",83.5 (23.6) mg/dL
same,"LDL-C (on treatment), mean (SD)","[2]; Week 12, non-uptitrated at Week 12 (n = 32)",58.8 (16.8) mg/dL
same,"LDL-C (on treatment), mean (SD)","[2]; Week 12, uptitrated at Week 12 (n = 14)",78.3 (22.8) mg/dL
same,LDL-C LS mean difference (SE) % MAb316P versus ezetimibe,"[2]; Week 24, ITT, excluding post up-titration data from patients up-titrated having LDL-C <100 mg/dL",−28.7%
same,LDL-C LS mean difference (SE) % MAb316P versus ezetimibe,"[2]; Week 24, ITT, listed as MAb316P",−31.6%
same,"LDL-C (on treatment), mean (SD)","[2]; Week 24, non-uptitrated, 75 mg Q2W (n = 32)",57.8 (16.2) mg/dL
same,"LDL-C (on treatment), mean (SD)","[2]; Week 24, uptitrated to 150 mg Q2W at Week 12 (n = 14)",74.8 (19.5) mg/dL
same,LDL-C LS mean (SE) change from baseline (%),[2]; ITT,−47.2%
same,LDL-C LS mean (SE) change from baseline (%),[2]; On-treatment,−54.1%
same,estimated proportions of patients with LDL-C reductions ≧50% at week 12,"[2]; before up-titration, ITT",58%
same,proportions of patients with LDL-C reductions ≧50% at week 12,"[2]; before up-titration, on-treatment analysis",65%
same,reduction in Lp(a),"[2]; current study, discussion",18%
same,patients who achieved LDL-C<70 mg/dL at Week 8,"[2]; of the 46 mAb316P-treated patients in PK analyses, 75 mg Q2W",32 patients
same,LS mean (SE) LDL-C reductions from baseline to week 24,"[2]; on-treatment analysis, given as reduction",54 (2) %
same,LDL-C reduction at week 12,"[2]; on-treatment analysis, mAb316P 75 mg Q2W",53 (2) % and 53%
same,reduction in LDL-C at 12 weeks,"[2]; summary, mAb316P 75mg Q2W arm, monotherapy population",~50%
same,time-course of LDL-C lowering,[2],robust LDL-C reductions maintained from week 4 to end of the treatment period at week 24
same,time-course of LDL-C lowering,[2]; listed as MAb316P,sustained LDL-lowering effect from weeks 4 to 24
same,between-group LS mean (SE) difference in LDL-C,[2]; ITT,−28 (4) %
same,between-group LS mean (SE) difference in LDL-C,[2]; on-treatment analysis,−33 (3) %
same,Apo A-1 LS mean difference (SE) % MAb316P versus ezetimibe,"[2]; week 24, ITT",5.3 (2.2) %
same,Apo B LS mean difference (SE) % MAb316P versus ezetimibe,"[2]; week 24, ITT",−25.8 (3.3) %
same,HDL-C LS mean difference (SE) % MAb316P versus ezetimibe,"[2]; week 24, ITT",4.4 (2.7) %
same,LDL-C LS mean difference (SE) % MAb316P versus ezetimibe,"[2]; week 24, ITT",−32 (4) %
same,Lp(a) mean difference (SE) % MAb316P versus ezetimibe,"[2]; week 24, ITT",−4.4 (5.3) %
same,Non-HDL-C LS mean difference (SE) % MAb316P versus ezetimibe,"[2]; week 24, ITT",−25.5 (4.1) %
same,TGs mean difference (SE) % MAb316P versus ezetimibe,"[2]; week 24, ITT",−1.2 (5.9) %
same,Total cholesterol LS mean difference (SE) % MAb316P versus ezetimibe,"[2]; week 24, ITT",−18.7 (3.0) %
same,Apo A-1 LS mean difference (SE) % MAb316P versus ezetimibe,"[2]; week 24, On-treatment",6.1 (2.3) %
same,Apo B LS mean difference (SE) % MAb316P versus ezetimibe,"[2]; week 24, On-treatment",−29.2 (2.6) %
same,HDL-C LS mean difference (SE) % MAb316P versus ezetimibe,"[2]; week 24, On-treatment",6.2 (2.7) %
same,LDL-C LS mean difference (SE) % MAb316P versus ezetimibe,"[2]; week 24, On-treatment",−36.9%
same,Lp(a) mean difference (SE) % MAb316P versus ezetimibe,"[2]; week 24, On-treatment",−5.4 (5.7) %
same,Non-HDL-C LS mean difference (SE) % MAb316P versus ezetimibe,"[2]; week 24, On-treatment",−30.5 (2.7) %
same,TGs mean difference (SE) % MAb316P versus ezetimibe,"[2]; week 24, On-treatment",−1.9 (6.0) %
same,Total cholesterol LS mean difference (SE) % MAb316P versus ezetimibe,"[2]; week 24, On-treatment",−22.2 (2.3) %
